Laboratory results reported in patent publication US8895547B2, “Substituted phenyl-oxathiazine derivatives, method for producing them, drugs containing said compounds and the use thereof” (Sanofi, priority 2011, dated 2014).

Target: T1, human 11β-HSD1 (Homo sapiens, UniProt P28845)
T1 construct: host or cells: microsome fraction
Assay: Enzymatic 11beta-HSD1 test (SPA-based detection)
Format: biochemical
Settings: human 11β-HSD1 microsome fraction, [1,2-3H]-cortisone, NADPH, 37° C. 1 hour
In short: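 Scintillation proximity detection: anti-cortisol antibody on SPA-PVT beads captured tritiated cortisol. The stop mix also contained 0.01 mM SSR110887 and was equilibrated 1 h at room temperature before counting. Cortisol came from [1,2-3H]-cortisone ([…]), turned over by human 11β-HSD1 microsomal protein (0.2 µg) with 0.25 mM NADPH in HEPES buffer, 37 °C, 1 h.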

T1 sequence (P28845 whole entry): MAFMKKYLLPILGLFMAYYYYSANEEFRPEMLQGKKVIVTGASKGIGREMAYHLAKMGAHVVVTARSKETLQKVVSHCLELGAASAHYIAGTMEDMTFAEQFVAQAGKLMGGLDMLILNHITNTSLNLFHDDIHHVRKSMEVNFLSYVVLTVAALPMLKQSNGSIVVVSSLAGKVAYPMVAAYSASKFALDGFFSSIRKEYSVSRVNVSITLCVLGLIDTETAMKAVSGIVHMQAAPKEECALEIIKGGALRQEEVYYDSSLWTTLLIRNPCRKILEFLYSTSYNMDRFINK

Row | IC50 [nM] | SMILES
1 | 6 | CC1(C)OC(N[C@@H](CCO)c2ccccc2F)=NS(=O)(=O)C1c1ccc(-c2ccncc2)cc1 (stereo partly drawn) [Example 119, (S)-3-[6,6-Dimethyl-4,4-dioxo-5-(4-pyridin-4-yl-phenyl)-5,6-dihydro-4H-4lambda6-[1,4,3]oxathiazin-2-ylamino]-3-(2-fluorophenyl)-propan-1-ol]
2 | 6 | CC1(C)OC(N[C@@H](CCO)c2ccccc2F)=NS(=O)(=O)C1c1ccc(-c2ccc(C(N)=O)cc2)cc1 (stereo partly drawn) [Example 120, 4′-{2-[(S)-1-(2-fluorophenyl)-3-hydroxy-propylamino]-6,6-dimethyl-4,4-dioxo-5,6-dihydro-4H-4lambda6-[1,4,3]oxathiazin-5-yl}-biphenyl-4-carboxylic acid amide]
3 | 8 | CC1(C)OC(N[C@@H](CCO)c2ccccc2F)=NS(=O)(=O)C1c1ccc(-c2cn[nH]c2)cc1 (stereo partly drawn) [Example 121, (S)-3-{6,6-Dimethyl-4,4-dioxo-5-[4-(1H-pyrazol-4-yl)-phenyl]-5,6-dihydro-4H-4lambda6-[1,4,3]oxathiazin-2-ylamino}-3-(2-fluorophenyl)-propan-1-ol]
4 | 35 | CN(CCO)CCCc1ccc(C2C(C)(C)OC(N[C@@H](CCO)c3ccccc3F)=NS2(=O)=O)cc1 (stereo partly shown) [Example 122]
5 | 13 | CN(C)Cc1ccc(-c2ccc(C3C(C)(C)OC(N[C@@H](CCO)c4ccccc4F)=NS3(=O)=O)cc2)cc1 (stereo partly drawn) [Example 123, (S)-3-[5-(4′-Dimethylaminomethyl-biphenyl-4-yl)-6,6-dimethyl-4,4-dioxo-5,6-dihydro-4H-4lambda6-[1,4,3]oxathiazin-2-ylamino]-3-(2-fluorophenyl)-propan-1-ol]
6 | 8 | Cn1cc(-c2ccc(C3C(C)(C)OC(N[C@@H](CCO)c4ccccc4F)=NS3(=O)=O)cc2)cn1 (stereo partly drawn) [Example 124, (S)-3-{6,6-Dimethyl-5-[4-(1-methyl-1H-pyrazol-yl)-phenyl]-4,4-dioxo-5,6-dihydro-4H-4lambda6-[1,4,3]oxathiazin-2-ylamino}-3-(2-fluorophenyl)-propan-1-ol]
7 | 4 | CN1CCN(c2ncc(-c3ccc(C4C(C)(C)OC(N[C@@H](CCO)c5ccccc5F)=NS4(=O)=O)cc3)cn2)CC1 (stereo partly drawn) [Example 125, (S)-3-(6,6-Dimethyl-5-{4-[2-(4-methyl-piperazin-1-yl)-pyrimidin-5-yl]-phenyl}-4,4-dioxo-5,6-dihydro-4H-4lambda6-[1,4,3]oxathiazin-2-ylamino)-3-(2-fluorophenyl)-propan-1-ol]
8 | 19 | CN(C)c1cccc(-c2ccc(C3C(C)(C)OC(N[C@@H](CCO)c4ccccc4F)=NS3(=O)=O)cc2)n1 (stereo partly drawn) [Example 126, (S)-3-{5-[4-(6-Dimethylamino-pyridin-2-yl)-phenyl]-6,6-dimethyl-4,4-dioxo-5,6-dihydro-4H-4lambda6-[1,4,3]oxathiazin-2-ylamino}-3-(2-fluorophenyl)-propan-1-ol]
9 | 6 | CC1(C)OC(N[C@@H](CCO)c2ccccc2F)=NS(=O)(=O)C1c1ccc(-c2ccnc(C#N)c2)cc1 (stereo partly shown) [Example 127]
10 | 10 | CC1(C)OC(N[C@@H](CCO)c2ccccc2F)=NS(=O)(=O)C1c1ccc(-c2cc[nH]n2)cc1 (stereo partly drawn) [Example 128, (S)-3-{6,6-Dimethyl-4,4-dioxo-5-[4-(1H-pyrazol-3-yl)-phenyl]-5,6-dihydro-4H-4lambda6-[1,4,3]oxathiazin-2-ylamino}-3-(2-fluorophenyl)-propan-1-ol]
11 | 18 | CC1(C)OC(N[C@@H](CCO)c2ccccc2F)=NS(=O)(=O)C1c1ccc(CN2CCOCC2)cc1 (stereo partly drawn) [Example 129, (S)-3-[6,6-Dimethyl-5-(4-morpholin-4-ylmethyl-phenyl)-4,4-dioxo-5,6-dihydro-4H-4lambda6-[1,4,3]oxathiazin-2-ylamino]-3-(2-fluorophenyl)-propan-1-ol]
12 | 20 | CC1(C)OC(N[C@@H](CCO)c2ccccc2F)=NS(=O)(=O)C1c1ccc(Nc2ncccn2)cc1 (stereo partly drawn) [Example 130, (S)-3-{6,6-Dimethyl-4,4-dioxo-5-[4-(pyrimidin-2-ylamino)-phenyl]-5,6-dihydro-4H-4lambda6-[1,4,3]oxathiazin-2-ylamino}-3-(2-fluorophenyl)-propan-1-ol]
13 | 14 | CC1(C)OC(N[C@@H](CCO)c2ccccc2F)=NS(=O)(=O)C1c1ccc(N2CCCC2=O)cc1 (stereo partly drawn) [Example 132, 1-(4-{2-[(S)-1-(2-fluorophenyl)-3-hydroxy-propylamino]-6,6-dimethyl-4,4-dioxo-5,6-dihydro-4H-4lambda6-[1,4,3]oxathiazin-5-yl}-phenyl)-pyrrolidin-2-one]
14 | 7 | CN1CCN(c2cnc(-c3ccc(C4C(C)(C)OC(N[C@@H](CCO)c5ccccc5F)=NS4(=O)=O)cc3)cn2)CC1 (stereo partly drawn) [Example 133, (S)-3-{6,6-Dimethyl-5-[4-(4-methyl-3,4,5,6-tetrahydro-2H-[1,2′]bipyrazinyl-5′-yl)-phenyl]-4,4-dioxo-5,6-dihydro-4H-4lambda6-[1,4,3]oxathiazin-2-ylamino}-3-(2-fluorophenyl)-propan-1-ol]
15 | 11 | CC1(C)OC(N[C@@H](CCO)c2ccccc2F)=NS(=O)(=O)C1c1ccc(-c2ccccn2)cc1 (stereo partly drawn) [Example 134, (S)-3-[6,6-Dimethyl-4,4-dioxo-5-(4-pyridin-2-yl-phenyl)-5,6-dihydro-4H-4lambda6-[1,4,3]oxathiazin-2-ylamino]-3-(2-fluorophenyl)-propan-1-ol]
16 | 59 | CC1(C)OC(N[C@@H](CCO)c2ccccc2F)=NS(=O)(=O)C1c1ccc(N2CCN(CCO)CC2)cc1 (stereo partly shown) [Example 135]
17 | 63 | CN1CCN(Cc2ccc(C3C(C)(C)OC(N[C@@H](CCO)c4ccccc4F)=NS3(=O)=O)cc2)CC1 (stereo partly drawn) [Example 136, (S)-3-{6,6-Dimethyl-5-[4-(4-methyl-piperazin-1-ylmethyl)-phenyl]-4,4-dioxo-5,6-dihydro-4H-4lambda6-[1,4,3]oxathiazin-2-ylamino}-3-(2-fluoro-phenyl)-propan-1-ol]
18 | 70 | CN1CCN(CCOc2ccc(C3C(C)(C)OC(N[C@@H](CCO)c4ccccc4F)=NS3(=O)=O)cc2)CC1 (stereo partly drawn) [Example 137, (S)-3-(6,6-Dimethyl-5-{4-[2-(4-methyl-piperazin-1-yl)-ethoxy]-phenyl}-4,4-dioxo-5,6-dihydro-4H-4lambda6-[1,4,3]oxathiazin-2-ylamino)-3-(2-fluoro-phenyl)-propan-1-ol]
19 | 61 | CC1(C)OC(N[C@@H](CCO)c2ccccc2F)=NS(=O)(=O)C1c1ccc(N2CCN(C(C)(C)C)CC2)cc1 (stereo partly drawn) [Example 138, (S)-3-{5-[4-(4-tert-Butyl-piperazin-1-yl)-phenyl]-dimethyl-4,4-dioxo-5,6-dihydro-4H-4lambda6-[1,4,3]oxathiazin-2-ylamino}-3-(2-fluorophenyl)-propan-1-ol]
20 | 5 | COc1ncc(-c2ccc(C3C(C)(C)OC(N[C@@H](CCO)c4ccccc4F)=NS3(=O)=O)cc2)cn1 (stereo partly drawn) [Example 139, (S)-3-(2-fluorophenyl)-3-{5-[4-(2-methoxy-pyrimidin-5-yl)-phenyl]-6,6-dimethyl-4,4-dioxo-5,6-dihydro-4H-4lambda6-[1,4,3]oxathiazin-2-ylamino}-propan-1-ol]
21 | 69 | CC1(C)OC(N[C@@H](CCO)c2ccccc2F)=NS(=O)(=O)C1c1ccc(CCN2CCOCC2)cc1 (stereo partly shown) [Example 140]
22 | 14 | CC1(C)OC(N[C@@H](CCO)c2ccccc2F)=NS(=O)(=O)C1c1ccc(N2C(=O)c3ccccc3C2=O)cc1 (stereo partly drawn) [Example 141, 2-(4-{2-[(S)-1-(2-fluorophenyl)-3-hydroxy-propylamino]-6,6-dimethyl-4,4-dioxo-5,6-dihydro-4H-4lambda6-[1,4,3]oxathiazin-5-yl}-phenyl)-isoindole-1,3-dione]
23 | 64 | CC1(C)OC(N[C@@H](CCO)c2ccccc2F)=NS(=O)(=O)C1c1ccc(NC2CCN(C3CC3)CC2)cc1 (stereo partly drawn) [Example 142, (S)-3-{5-[4-(1-Cyclopropyl-piperidin-4-ylamino)-phenyl]-6,6-dimethyl-4,4-dioxo-5,6-dihydro-4H-4lambda6-[1,4,3]oxathiazin-2-ylamino}-3-(2-fluoro-phenyl)-propan-1-ol]
24 | 13 | CC1(C)OC(N[C@@H](CCO)c2ccccc2F)=NS(=O)(=O)C1c1ccc(C2CCN(CCC(F)(F)F)CC2)cc1 (stereo partly drawn) [Example 143, (S)-3-(6,6-Dimethyl-4,4-dioxo-5-{4-[1-(3,3,3-trifluoropropyl)-piperidin-4-yl]-phenyl}-5,6-dihydro-4H-4lambda6-[1,4,3]oxathiazin-2-ylamino)-3-(2-fluorophenyl)-propan-1-ol]
25 | 10 | CC(=O)c1ccc(C2C(C)(C)OC(N[C@@H](CCO)c3ccccc3F)=NS2(=O)=O)cc1 (stereo partly shown) [Example 144]
26 | 5 | CN1CCN(c2ccc(-c3ccc(C4C(C)(C)OC(N[C@@H](CCO)c5ccccc5F)=NS4(=O)=O)cc3)cn2)CC1 (stereo partly drawn) [Example 145, (S)-3-(6,6-Dimethyl-5-{4-[6-(4-methyl-piperazin-1-yl)-pyridin-3-yl]-phenyl}-4,4-dioxo-5,6-dihydro-4H-4lambda6-[1,4,3]oxathiazin-2-ylamino)-3-(2-fluoro-phenyl)-propan-1-ol]
27 | 8 | CC1(C)OC(N[C@@H](CCO)c2ccccc2F)=NS(=O)(=O)[C@H]1c1ccc(-c2ccc(C(N)=O)cc2)cc1 [Example 146, 4′-{(S)-2-[(S)-1-(2-fluorophenyl)-3-hydroxy-propylamino]-6,6-dimethyl-4,4-dioxo-5,6-dihydro-4H-4lambda6-[1,4,3]oxathiazin-5-yl}-biphenyl-4-carboxamide]
28 | 9 | CC1(C)OC(N[C@@H](CCO)c2ccccc2F)=NS(=O)(=O)[C@@H]1c1ccc(-c2ccc(C(N)=O)cc2)cc1 [Example 147, 4′-{(R)-2-[(S)-1-(2-fluorophenyl)-3-hydroxy-propylamino]-6,6-dimethyl-4,4-dioxo-5,6-dihydro-4H-4lambda6-[1,4,3]oxathiazin-5-yl}-biphenyl-4-carboxamide]
